Measurements: US20050106226A1, “Pretreatment method and system for enhancing transdermal drug delivery” (priority 2003, published 2005)

Columns and labels:
[1] = Passive transdermal delivery of PPS from hydrogel gel patch after microprojection array pretreatment, determined by urinary excretion of tritium; format: in vivo, hairless guinea pig; conditions: passive diffusion
Protocol: In this experiment, PPS was delivered by passive diffusion through skin pathways created by a pretreatment device having a microprojection array. The microprojection array comprised a stainless steel sheet having a thickness of 0.025 mm, trapezoidally shaped microprojections bent at an angle of approximately 90° to the plane of the sheet and a microprojection density of 241 microprojections/cm^2. […] The gel patch comprised a foam, double adhesive ring (diameter 3.8 cm, thickness 0.16 cm) having 0.35 mL of a hydrogel formulation and a skin contact area of 2 cm^2. The hydrogel formulation included tritiated PPS at 50 mg/mL in a 2% hydroxyethyl cellulose ([…], HERCULES Int. Lim. Netherlands, determined molecular weight: Mw 1890000, Mn 1050000) hydrogel. […] The amount of the biologically active agent (or drug) that penetrated the skin during selected time intervals was determined by measuring urinary excretion of tritium (previous studies had shown that in HGP's 32% of 3H-PPS injected intravenously is excreted in urine). […] After 24 h delivery, more than 6 mg of PPS had been administered systemically.

[2] = injected intravenously, HGP; cited from earlier work

amount of PPS administered systemically ([1]; after 24 h delivery, tritiated PPS 50 mg/mL in 2% HEC hydrogel, 0.35 mL, 2 cm^2): more than 6 mg | flux of PPS through the skin ([1]; FIG. 19): time dependant flux
Substance: pentosan polysulfate [PPS]
fraction of 3H-PPS excreted in urine [2]: 32%
